pEC50, pIC50: −log10 of the molar value.
Legend:
[1] = target: T1, soluble guanylate cyclase (sGC), recombinant guanylate cyclase reporter cell line (CHO) (Rattus norvegicus, UniProt P20595); test: Action at a recombinant guanylate cyclase reporter cell line (CHO reporter cell); assay type: cell-based
T1 construct: expressed in transfected cells; host or cells: CHO
T1 sequence (P20595 1-619): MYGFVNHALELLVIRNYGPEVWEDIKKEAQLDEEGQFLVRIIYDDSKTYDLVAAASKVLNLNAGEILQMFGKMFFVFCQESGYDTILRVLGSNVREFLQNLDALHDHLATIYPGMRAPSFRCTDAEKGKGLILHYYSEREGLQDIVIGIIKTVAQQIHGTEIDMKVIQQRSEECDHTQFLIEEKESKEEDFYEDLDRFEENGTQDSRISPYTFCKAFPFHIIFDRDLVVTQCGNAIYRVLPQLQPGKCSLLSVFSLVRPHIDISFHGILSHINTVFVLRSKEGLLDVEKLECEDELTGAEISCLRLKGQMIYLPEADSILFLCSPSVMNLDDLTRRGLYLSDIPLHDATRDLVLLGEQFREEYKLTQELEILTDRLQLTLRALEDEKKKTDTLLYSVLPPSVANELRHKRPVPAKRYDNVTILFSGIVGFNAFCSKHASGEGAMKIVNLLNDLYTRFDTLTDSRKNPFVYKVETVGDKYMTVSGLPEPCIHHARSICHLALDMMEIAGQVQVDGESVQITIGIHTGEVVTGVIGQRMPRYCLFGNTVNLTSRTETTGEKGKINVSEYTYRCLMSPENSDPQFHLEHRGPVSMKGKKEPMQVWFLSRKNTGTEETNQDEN
T1 sequence (P19686 1-690 partner): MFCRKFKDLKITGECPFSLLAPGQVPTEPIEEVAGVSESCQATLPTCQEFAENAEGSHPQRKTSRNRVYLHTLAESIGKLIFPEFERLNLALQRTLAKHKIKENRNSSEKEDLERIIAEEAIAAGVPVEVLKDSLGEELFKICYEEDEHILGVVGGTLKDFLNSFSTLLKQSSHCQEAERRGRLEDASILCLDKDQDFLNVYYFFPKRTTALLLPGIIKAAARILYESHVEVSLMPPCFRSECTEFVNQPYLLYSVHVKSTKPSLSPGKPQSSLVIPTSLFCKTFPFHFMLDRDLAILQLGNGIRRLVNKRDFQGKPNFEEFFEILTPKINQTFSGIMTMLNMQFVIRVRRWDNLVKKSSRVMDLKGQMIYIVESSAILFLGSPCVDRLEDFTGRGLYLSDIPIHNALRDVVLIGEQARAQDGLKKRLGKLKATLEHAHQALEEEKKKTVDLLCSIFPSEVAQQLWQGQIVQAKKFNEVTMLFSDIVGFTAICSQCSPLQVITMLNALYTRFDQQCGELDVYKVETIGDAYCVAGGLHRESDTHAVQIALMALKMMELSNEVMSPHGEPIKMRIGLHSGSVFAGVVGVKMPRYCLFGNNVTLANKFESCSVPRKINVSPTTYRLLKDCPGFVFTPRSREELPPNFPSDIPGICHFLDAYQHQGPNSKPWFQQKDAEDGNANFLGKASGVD
Method: B-1. Action at a Recombinant Guanylate Cyclase Reporter Cell Line
The cellular action of the compounds according to the invention is determined at a recombinant guanylate cyclase reporter cell line, as described in F. Wunder et al., Anal. Biochem. 339, 104-112 (2005).

[2] = target: T2, soluble guanylate cyclase (sGC) (Rattus norvegicus, UniProt P20595); test: Stimulation of sGC enzyme activity (PPi luminescence detection); assay type: biochemical; details: for pEC50: read-out: EC50 (concentration at 50% of maximum efficacy), activating action at the sGC enzyme in vitro
T2 construct: made in house
T2 sequence (P20595 1-619): T1 sequence (P20595 1-619)
T2 sequence (P19686 1-690 partner): T1 sequence (P19686 1-690 partner)
Method: B-2. Stimulation of sGC Enzyme Activity
Soluble guanylate cyclase (sGC) converts on stimulation GTP into cGMP and pyrophosphate (PPi). PPi is detected with the aid of the assay described below. The signal produced in the assay increases as the reaction progresses and serves as a measure of the sGC enzyme activity under the given stimulation.
To carry out the assay, 29 μl of enzyme solution [0-10 nM soluble guanylate cyclase (prepared according to Honicka et al., J. Mol. Med. 77, 14-23 (1999)) in 50 mM TEA, 2 mM MgCl2, 0.1% BSA (fraction V), 0.005% Brij®, pH 7.5] are initially introduced into a microplate, and 1 μl of the substance to be tested (as a serially diluted solution in DMSO) is added. The mixture is incubated at room temperature for 10 min. Then 20 μl of detection mix [1.2 nM Firefly Luciferase (Photinus pyralis luciferase, Promega), 29 μM dehydroluciferin (prepared according to Bitler & McElroy, Arch. Biochem. Biophys. 72, 358 (1957)), 122 μM luciferin (Promega), 153 μM ATP (Sigma) and 0.4 mM DTT (Sigma) in 50 mM TEA, 2 mM MgCl2, 0.1% BSA (fraction V), 0.005% Brij®, pH 7.5] are added. The enzyme reaction is started by adding 20 μl of substrate solution [1.25 mM guanosine 5′-triphosphate (Sigma) in 50 mM TEA, 2 mM MgCl2, 0.1% BSA (fraction V), 0.005% Brij®, pH 7.5] and measured continuously in a luminometer. The extent of the stimulation by the substance to be tested can be determined relative to the signal of the unstimulated reaction.
The activation of heme-free guanylate cyclase is examined by addition of 25 μM of 1H-1,2,4-oxadiazolo[4,3-a]quinoxalin-1-one (ODQ) to the enzyme solution and subsequent incubation for 30 minutes and compared to the stimulation of the native enzyme.

[3] = system: rabbit saphenous artery rings; test: Vasorelaxant effect in vitro on phenylephrine-contracted saphenous artery rings; design: species or system Rabbits; details: Oryctolagus cuniculus, contraction induced by phenylephrine
Method: B-3. Vasorelaxant Effect In Vitro:
Rabbits are anesthetized and sacrificed by intravenous injection of thiopental sodium (about 50 mg/kg) and exsanguinated. The saphenous artery is removed and divided into rings 3 mm wide. The rings are mounted singly on in each case a pair of triangular hooks open at the end and made of 0.3 mm-thick special wire (Remanium®). Each ring is placed under an initial tension in 5 ml organ baths with Krebs-Henseleit solution which is at 37° C., is gassed with carbogen and has the following composition: NaCl 119 mM; KCl 4.8 mM; CaCl2×2 H2O 1 mM; MgSO4×7 H2O 1.4 mM; KH2PO4 1.2 mM; NaHCO3 25 mM; glucose 10 mM; bovine serum albumin 0.001%. The force of contraction is detected with Statham UC2 cells, amplified and digitized via A/D converters (DAS-1802 HC, Keithley Instruments, Munich) and recorded in parallel on chart recorders. Contractions are induced by addition of phenylephrine.
After several (generally 4) control cycles, the substance to be investigated is added in each further run in increasing dosage, and the level of the contraction achieved under the influence of the test substance is compared with the level of the contraction reached in the last preceding run. The concentration necessary to reduce the contraction reached in the preceding control by 50% is calculated from this (IC50). The standard application volume is 5 μl. The proportion of DMSO in the bath solution corresponds to 0.1%.

SMILES	MEC (minimum effective concentration), sGC-activating activity in the CHO reporter cell in vitro [1] [nM]	MEC (minimum effective concentration), activating action at the sGC enzyme in vitro [2] [nM]	pIC50 [3]	pEC50 [2]
O=C(O)CCCCN(Cc1ccc(C(=O)O)cc1)C1CCc2cccc(OCc3cccc(F)c3)c2C1 (centres unmarked) [Example 11]	300	200		
O=C(O)CCCCN(Cc1ccc(C(=O)O)cc1)C1CCc2cccc(OCCCN3CCCC3=O)c2C1 (centres unmarked) [Example 7]		830		
O=C(O)CCCCN(Cc1ccc(C(=O)O)cc1)C1CCc2cccc(OCc3ccc(CCc4ccccc4)cc3)c2C1 (centres unmarked) [Example 6]			5.36	
O=C(O)CCCCN(Cc1ccc(C(=O)O)cc1)C1CCc2cccc(OCc3ccc(CCc4ccccc4)cc3)c2C1 (centres unmarked) [Example 4]	3.0	0.7		8.12
O=C(O)CCCCN(Cc1ccc(C(=O)O)cc1)C1CCc2cccc(OCc3ccc(CCc4ccccc4)cc3)c2C1 (single isomer, unassigned) [Example 5]	0.3	0.13	5.04	8.85
CC(C)(C)c1nc(COc2cccc3c2CC(N(CCCCC(=O)O)Cc2ccc(C(=O)O)cc2)CC3)no1 (centres unmarked) [Example 12]		205		
CC(C)(C)c1ccc(COc2cccc3c2CC(N(CCCCC(=O)O)Cc2ccc(C(=O)O)cc2)CC3)cc1 (racemic) [Example 1, rac-4-{[{8-[(4-tert-Butylbenzyl)oxy]-1,2,3,4-tetrahydronaphthalen-2-yl}(4-carboxybutyl)amino]-methyl}benzoic acid]	0.3	0.12	6.95	8.07
O=C(O)CCCCN(Cc1ccc(C(=O)O)cc1)C1CCc2cccc(OCCCN3CCOCC3=O)c2C1 (centres unmarked) [Example 9]		700		
CC(C)CCCCOc1cccc2c1CC(N(CCCCC(=O)O)Cc1ccc(C(=O)O)cc1)CC2 (centres unmarked) [Example 10]	30	48		6.21

Source: patent US8673903B2, “Substituted 8-alkoxy-2-aminotetralin derivatives, and use thereof” (Bayer Intellectual Property GmbH, priority 2010, dated 2014)
